Each structure is given as a SMILES string.

In patent US8017769B2, “Colorless water-soluble organic luminophores and intermediates thereof” (priority 2005, dated 2011) one finds fluorescence wavelength maximum and solubility in water data, which are given here for 11 compounds.

For data set [1] the following is noted: colourless aqueous solution.
For data set [2] the following is noted: result in words.

Compound `N.N.N.O=C(O)CN(CC(=O)O)c1nc(Cl)nc(Nc2ccc(S(=O)(=O)O)cc2-c2nc3ccccc3o2)n1` [Compound XIV, Triammonium salt of 4-{4-chloro-6-[di(carboxymethyl)amino]-1,3,5-triazin-2-ylamino}-3-(benzo[d]oxazol-2-yl)benzenesulfonic acid] came in with a fluorescence wavelength maximum in data set [1] of 517 mm. The solubility in water entry in data set [2] is “highly soluble in water”.
Regarding `O=S(=O)([O-])c1ccc(Nc2nc(Cl)nc(Cl)n2)c(-c2nc3ccccc3s2)c1.[Na+]` [Compound II, Sodium salt of 4-(4,6-dichloro-1,3,5-triazin-2-ylamino)-3-(benzo[d]thiazol-2-yl)benzenesulfonic acid], the solubility in water entry in data set [2] was “not soluble in water”.
In data set [1], `O=S(=O)([O-])c1ccc(Nc2nc(Nc3ccc(S(=O)(=O)[O-])cc3-c3nc4ccccc4s3)nc(N3CCOCC3)n2)c(-c2nc3ccccc3s2)c1.[Na+].[Na+]` [Compound VI, Disodium salt of 4-{4-[2-(benzo[d]thiazol-2-yl)-4-sulfophenylamino]-6-morpholino-1,3,5-triazin-2-ylamino}-3-(benzo[d]thiazol-2-yl)benzenesulfonic acid] yielded a fluorescence wavelength maximum of 582 nm. Moreover, the solubility in water entry in data set [2] was “highly soluble in water”.
For `O=S(=O)([O-])c1cccc(Nc2nc(Cl)nc(Nc3ccc(S(=O)(=O)[O-])cc3-c3nc4ccccc4o3)n2)c1.[Na+].[Na+]` [Compound XIII, Disodium salt of 4-[4-chloro-6-(3-sulfophenylamino)-1,3,5-triazin-2-ylamino]-3-(benzo[d]oxazol-2-yl)benzenesulfonic acid], in that order: 517 nm and “highly soluble in water”.
`O=C([O-])CNc1nc(NCC(=O)[O-])nc(Nc2ccc(S(=O)(=O)[O-])cc2-c2nc3ccccc3s2)n1.[Na+].[Na+].[Na+]` [Compound X, Trisodium salt of 4-[4,6-bis(carboxymethylamino)-1,3,5-triazin-2-ylamino]-3-(benzo[d]thiazol-2-yl)benzenesulfonic acid] came in with a fluorescence wavelength maximum in data set [1] of 565 nm. Moreover, in data set [2], the solubility in water entry is “highly soluble in water”.
On the same counts, the results for `O=C([O-])CNc1nc(Cl)nc(Nc2ccc(S(=O)(=O)[O-])cc2-c2nc3ccccc3s2)n1.[Na+].[Na+]` [Compound VIII, Disodium salt of 4-(4-carboxymethylamino-6-chloro-1,3,5-triazin-2-ylamino)-3-(benzo[d]thiazol-2-yl)benzenesulfonic acid] are 548 nm and “highly soluble in water”.
For `O=S(=O)([O-])c1cccc(Nc2nc(Nc3ccc(S(=O)(=O)[O-])cc3-c3nc4ccccc4s3)nc(N3CCOCC3)n2)c1.[Na+].[Na+]` [Compound IX, Disodium salt of 4-[4-(3-sulfophenylamino)-6-morpholino-1,3,5-triazin-2-ylamino]-3-(benzo[d]thiazol-2-yl)benzenesulfonic acid], in that order: 565 nm and “highly soluble in water”.
In data set [1], `O=S(=O)([O-])c1cccc(Nc2nc(Cl)nc(Nc3ccc(S(=O)(=O)[O-])cc3-c3nc4ccccc4s3)n2)c1.[Na+].[Na+]` [Compound III, Disodium salt of 4-[4-Chloro-6-(3-sulfophenylamino)-1,3,5-triazin-2-ylamino]-3-(benzo[d]thiazol-2-yl)benzenesulfonic acid] gave a fluorescence wavelength maximum of 550 nm. In data set [2], the solubility in water entry was “highly soluble in water”.
On the same counts, the results for `O=C(Nc1ccc(S(=O)(=O)[O-])cc1-c1nc2ccccc2s1)c1ccccc1S(=O)(=O)[O-].[Na+].[Na+]` [Compound VII, Disodium salt of 4-(2-sulfobenzoylamino)-3-(benzoldlthiazol-2-yl)benzenesulfonic acid] are 547 nm and “highly soluble in water”.
In the case of `O=S(=O)([O-])c1ccc(Nc2nc(Cl)nc(Nc3ccc(S(=O)(=O)[O-])cc3-c3nc4ccccc4s3)n2)c(-c2nc3ccccc3s2)c1.[Na+].[Na+]` [Compound V, Disodium salt of 4-{4-[2-(benzo[d]thiazol-2-yl)-4-sulfophenylamino]-6-chloro-1,3,5-triazin-2-ylamino}-3-(benzo[d]thiazol-2-yl)benzenesulfonic acid], in data set [2], the solubility in water result was “poorly soluble in water”.
On to `O=C([O-])CN(CC(=O)[O-])c1nc(Nc2ccc(S(=O)(=O)[O-])cc2-c2nc3ccccc3s2)nc(N(CC(=O)[O-])CC(=O)[O-])n1.[K+].[K+].[K+].[K+].[K+]` [Compound IV, Pentapotassium salt of 4-{4,6-bis-[di(carboxymethyl)amino]-1,3,5-triazin-2-ylamino}-3-(benzo[d]thiazol-2-yl)benzenesulfonic acid], for which the fluorescence wavelength maximum in data set [1] is listed as 570 nm. In addition, in data set [2], the solubility in water result was “highly soluble in water”.
